Measurements published in patent US11555821B2, “CA IX-NIR dyes and their uses” (On Target Laboratories, Inc., priority 2016, dated 2023).

Experiments:
[1] = tested on: SKRC52 human renal tumor xenograft; assay: Whole body fluorescence imaging of SKRC52 human renal tumor xenograft bearing mouse (IVIS imager); type: in vivo; conditions: 10 nmol
Experimental: SKRC52 human renal tumor xenograft bearing mouse was injected with 10 nmol of 54 and imaged with IVIS imager (ex=745 nm, em=ICG, exposure time=1 s) at different time intervals.
SKRC52 human renal tumor xenograft bearing mouse was injected with 10 nmol of 55 and imaged with IVIS imager (ex=745 nm, em=ICG, exposure time=1 s) at different time intervals.
SKRC52 human renal tumor xenograft bearing mouse was injected with 10 nmol of 60 and imaged with IVIS imager (ex=745 nm, em=ICG, exposure time=[…]) at different time intervals.
SKRC52 human renal tumor xenograft bearing mouse was injected with 10 nmol of 61 and imaged with IVIS imager (ex=745 nm, em=ICG, exposure time=[…]) at different time intervals.
SKRC52 human renal tumor xenograft bearing mouse was injected with 10 nmol of 62 and imaged with IVIS imager (ex=745 nm, em=ICG, exposure time=1 s) at different time intervals.
SKRC52 human renal tumor xenograft bearing mouse was injected with 10 nmol of 65 and imaged with IVIS imager (ex=745 nm, em=ICG, exposure time=1 s) at different time intervals.
SKRC52 human renal tumor xenograft bearing mouse was injected with 10 nmol of 69 and imaged with IVIS imager (ex=745 nm, em=ICG, exposure time=1 s) at different time intervals.
SKRC52 human renal tumor xenograft bearing mouse was injected with 10 nmol of 70 and imaged with IVIS imager (ex=745 nm, em=ICG, exposure time=1 s) at different time intervals.
SKRC52 human renal tumor xenograft bearing mouse was injected with 10 nmol 72 and imaged with IVIS imager (ex=745 nm, em=ICG, exposure time=1 s) at different time intervals
SKRC52 human renal tumor xenograft bearing mouse was injected with 10 nmol of 76 and imaged with IVIS imager (ex=745 nm, em=ICG, exposure time=1 s) at different time intervals
SKRC52 human renal tumor xenograft bearing mouse was injected with 10 nmol of 77 and imaged with IVIS imager (ex=745 nm, em=ICG, exposure time=1 s) at different time intervals
SKRC52 human renal tumor xenograft bearing mouse was injected with 10 nmol of 80 and imaged with IVIS imager (ex=745 nm, em=ICG, exposure time=1 s) at different time intervals
SKRC52 human renal tumor xenograft bearing mouse was injected with 10 nmol of 81 and imaged with IVIS imager (ex=745 nm, em=ICG, exposure time=1 s) at different time intervals
SKRC52 human renal tumor xenograft bearing mouse was injected with 10 nmol of 85 and imaged with IVIS imager (ex=745 nm, em=ICG, exposure time=1 s) at different time intervals
SKRC52 human renal tumor xenograft bearing mouse was injected with 10 nmol of 86 and imaged with IVIS imager (ex=745 nm, em=ICG, exposure time=1 s) at different time intervals
SKRC52 human renal tumor xenograft bearing mouse was injected with 10 nmol of 87 and imaged with IVIS imager (ex=745 nm, em=ICG, exposure time=1 s) at different time intervals
SKRC52 human renal tumor xenograft bearing mouse was injected with 10 nmol of 88 and imaged with IVIS imager (ex=745 nm, em=ICG, exposure time=1 s) at different time intervals
SKRC52 human renal tumor xenograft bearing mouse was injected with 10 nmol of 89 and imaged with IVIS imager (ex=745 nm, em=ICG, exposure time=1 s) at different time intervals
SKRC52 human renal tumor xenograft bearing mouse was injected with 10 nmol of 90 and imaged with IVIS imager (ex=745 nm, em=ICG, exposure time=1 s) at different time intervals
SKRC52 human renal tumor xenograft bearing mouse was injected with 10 nmol of 93 and imaged with IVIS imager (ex=745 nm, em=ICG, exposure time=1 s) at different time intervals
SKRC52 human renal tumor xenograft bearing mouse was injected with 10 nmol of 95 and imaged with IVIS imager (ex=745 nm, em=ICG, exposure time=1 s) at different time intervals
SKRC52 human renal tumor xenograft bearing mouse was injected with 10 nmol of 99 and imaged with IVIS imager (ex=745 nm, em=ICG, exposure time=1 s) at different time intervals […]

[2] = in the presence and absence of light; cited from earlier work
[3] = imaged at different time intervals
[4] = within 2-24 hours after administering to the animal

CC1(C)C(/C=C/C2=C(Oc3ccc(C[C@H](NC(=O)CCOCCOCCNC(=O)CCS(=O)(=O)c4c(F)c(F)c(S(N)(=O)=O)c(F)c4NC4CCCCC4)C(=O)O)cc3)C(=C/C=C3/N(CCCCS(=O)(=O)O)c4ccc(S(=O)(=O)O)cc4C3(C)C)/CCC2)=[N+](CCCCS(=O)(=O)[O-])c2ccc(S(=O)(=O)O)cc21 [Compound 60]
tumor-to-background ratio (TBR) [1, 3]: excellent | tumor-to-skin ratio [1, 3]: excellent | accumulation retained in the tumor (fluorescence over 24 hours) [1]: very high accumulation | whole-body imaging data [1, 4]: very good

CC1(C)C(/C=C/C2=C(Oc3ccc(C[C@H](NC(=O)CCS(=O)(=O)c4c(F)c(F)c(S(N)(=O)=O)c(F)c4NC4CCCCCCC4)C(=O)O)cc3)C(=C/C=C3/N(CCCCS(=O)(=O)O)c4ccc(S(=O)(=O)O)cc4C3(C)C)/CCC2)=[N+](CCCCS(=O)(=O)[O-])c2ccc(S(=O)(=O)O)cc21 [Compound 62]
tumor-to-background ratio (TBR) [1, 3]: excellent | tumor-to-skin ratio [1, 3]: excellent | accumulation retained in the tumor (fluorescence over 24 hours) [1]: very high accumulation | whole-body imaging data [1, 4]: very good

CC1(C)C(/C=C/C2=C(Oc3ccc(C[C@H](NC(=O)CCOCCOCCNC(=O)CCS(=O)(=O)c4c(F)c(F)c(S(N)(=O)=O)c(F)c4NC4CCC(F)(F)CC4)C(=O)O)cc3)C(=C/C=C3/N(CCCCS(=O)(=O)O)c4ccc(S(=O)(=O)O)cc4C3(C)C)/CCC2)=[N+](CCCCS(=O)(=O)[O-])c2ccc(S(=O)(=O)O)cc21 [Compound 72]
tumor-to-background ratio (TBR) [1, 3]: excellent | tumor-to-skin ratio [1, 3]: excellent | accumulation retained in the tumor (fluorescence over 24 hours) [1]: very high accumulation | whole-body imaging data [1, 4]: very good

CC(C)C[C@H](Nc1c(F)c(S(N)(=O)=O)c(F)c(F)c1S(=O)(=O)CCC(=O)NCCOCCOCCC(=O)N[C@@H](Cc1ccc(OC2=C(/C=C/C3=[N+](CCCCS(=O)(=O)[O-])c4ccc(S(=O)(=O)O)cc4C3(C)C)CCC/C2=C\C=C2\N(CCCCS(=O)(=O)O)c3ccc(S(=O)(=O)O)cc3C2(C)C)cc1)C(=O)O)C(=O)OCc1ccccc1 [Compound 76]
tumor-to-background ratio (TBR) [1, 3]: excellent | tumor-to-skin ratio [1, 3]: excellent | accumulation retained in the tumor (fluorescence over 24 hours) [1]: very high accumulation | whole-body imaging data [1, 4]: very good

CC(C)C[C@H](Nc1c(F)c(S(N)(=O)=O)c(F)c(F)c1S(=O)(=O)CCC(=O)NCCOCCOCCC(=O)N[C@@H](Cc1ccc(OC2=C(/C=C/C3=[N+](CCCCS(=O)(=O)[O-])c4ccc(S(=O)(=O)O)cc4C3(C)C)CCC/C2=C\C=C2\N(CCCCS(=O)(=O)O)c3ccc(S(=O)(=O)O)cc3C2(C)C)cc1)C(=O)O)C(=O)O [Compound 77]
tumor-to-background ratio (TBR) [1, 3]: excellent | tumor-to-skin ratio [1, 3]: excellent | accumulation retained in the tumor (fluorescence over 24 hours) [1]: very high accumulation | whole-body imaging data [1, 4]: very good

CC1(C)C(/C=C/C2=C(Oc3ccc(C[C@H](NC(=O)CCOCCOCCNC(=O)CCS(=O)(=O)c4ccc(S(N)(=O)=O)cc4NC4CCCCCCC4)C(=O)O)cc3)C(=C/C=C3/N(CCCCS(=O)(=O)O)c4ccc(S(=O)(=O)O)cc4C3(C)C)/CCC2)=[N+](CCCCS(=O)(=O)[O-])c2ccc(S(=O)(=O)O)cc21 [Compound 85]
tumor fluorescence intensity and tumor-to-background ratio compared to the compound 61 [1]: less | tumor-to-background ratio (TBR) [1, 3]: excellent | tumor-to-skin ratio [1, 3]: excellent | accumulation retained in the tumor (fluorescence over 24 hours) [1]: very high accumulation | whole-body imaging data [1, 4]: very good

CC1(C)C(/C=C/C2=C(Oc3ccc(C[C@H](NC(=O)CCOCCOCCNc4c(F)c(S(N)(=O)=O)c(F)c(F)c4S(=O)(=O)CCO)C(=O)O)cc3)C(=C/C=C3/N(CCCCS(=O)(=O)O)c4ccc(S(=O)(=O)O)cc4C3(C)C)/CCC2)=[N+](CCCCS(=O)(=O)[O-])c2ccc(S(=O)(=O)O)cc21 [Compound 86]
brightness compared to 60 and 61 [1]: less brighter | whole-body imaging data [1, 4]: very good

CC1(C)C(=CC=C2CCCC(C=CC3=[N+](CCCCS(=O)(=O)[O-])c4ccc(S(=O)(=O)O)cc4C3(C)C)=C2Oc2ccc(CC(NC(=O)CCOCCOCCNC(=O)CCS(=O)(=O)c3c(F)c(F)c(S(N)(=O)=O)c(F)c3NC(c3ccccc3)c3ccccc3)C(=O)O)cc2)N(CCCCS(=O)(=O)O)c2ccc(S(=O)(=O)O)cc21 (stereo not shown) [Compound 88]
whole-body imaging data ([1]; after 8 hours of administering): good | tumor-to-background ratio (TBR) ([1]; at 24 hour time point): excellent | tumor-to-skin ratio ([1]; at 24 hour time point): excellent

CN(C)C(N(c1c(F)c(S(N)(=O)=O)c(F)c(F)c1S(=O)(=O)CCC(=O)NCCOCCOCCC(=O)N[C@@H](Cc1ccc(OC2=C(/C=C/C3=[N+](CCCCS(=O)(=O)O)c4ccc(S(=O)(=O)O)cc4C3(C)C)CCC/C2=C\C=C2\N(CCCCS(=O)(=O)O)c3ccc(S(=O)(=O)O)cc3C2(C)C)cc1)C(=O)O)C1CCCCCCC1)=[N+](C)C [Compound 104]
tumor-to-background ratio (TBR) [1, 3]: excellent | tumor-to-skin ratio [1, 3]: excellent | accumulation retained in the tumor (fluorescence over 24 hours) [1]: very high accumulation | whole-body imaging data [1, 4]: good

CC1(C)C(/C=C/C=C/C=C/C=C2\N(CCCCS(=O)(=O)[O-])c3ccc4ccccc4c3C2(C)C)=[N+](CCCCS(=O)(=O)[O-])c2ccc3ccccc3c21.[Na+] [IR125]
in vitro cytotoxicity [2]: significant values of cytotoxicity

CN1/C(=C/C=C2\CCCC(/C=C/C3=[N+](C)c4ccc5ccccc5c4C3(C)C)=C2Cl)C(C)(C)c2c1ccc1ccccc21.Cc1ccc(S(=O)(=O)[O-])cc1 [IR813]
in vitro cytotoxicity [2]: significant values of cytotoxicity

CC1(C)C(=CC=C2CCCC(C=CC3=[N+](CCCCS(=O)(=O)[O-])c4ccc5ccccc5c4C3(C)C)=C2Cl)N(CCCCS(=O)(=O)[O-])c2ccc3ccccc3c21.[Na+] [IR820]
in vitro cytotoxicity [2]: no major cytotoxic effects
